Laboratory results: the supplement of paper PMC10307832

Experiments:
Experiment in all cases: relative viability (nuclei count vs DMSO), 5 days (fraction); higher = more cells survive
SGI-1776 + Palbociclib = compound: CN1CCC(CNc2ccc3ncc(-c4cccc(OC(F)(F)F)c4)n3n2)CC1 [SGI-1776] + CC(=O)c1c(C)c2cnc(Nc3ccc(N4CCNCC4)cn3)nc2n(C2CCCC2)c1=O [Palbociclib] (partner 0.5 µM)
Procedure, shortened: (§1)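 Five library-drug doses in √10 steps were combined with a fixed anchor-drug dose, or a single drug was given alone, by pin tool to lung cancer cell lines in 1536-well plates the day after seeding. Nuclei were stained and counted after 5 days. Relative viability is the nuclei count in treated wells over that in vehicle wells, taken as the median of duplicate plates.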

Entinostat + Pemetrexed = compound: Nc1ccccc1NC(=O)c1ccc(CNC(=O)OCc2cccnc2)cc1 [Entinostat] + Nc1nc2[nH]cc(CCc3ccc(C(=O)N[C@@H](CCC(=O)O)C(=O)O)cc3)c2c(=O)[nH]1 [Pemetrexed] (partner 0.2 µM)
Procedure, shortened: as §1

[1] = compound: C1COCCN1C2=NC(=NC3=C2OC4=C3C=CC=N4)C5=CC(=CC=C5)NC(=O)C6=CN=C(C=C6)N + CC1(C)CCC(c2ccc(Cl)cc2)=C(CN2CCN(c3ccc(C(=O)NS(=O)(=O)c4ccc(N[C@H](CCN5CCOCC5)CSc5ccccc5)c(S(=O)(=O)C(F)(F)F)c4)cc3)CC2)C1 [Navitoclax] (partner 0.5 µM)
Procedure, shortened: as §1

SGI-1776 + Navitoclax = compound: CN1CCC(CNc2ccc3ncc(-c4cccc(OC(F)(F)F)c4)n3n2)CC1 [SGI-1776] + CC1(C)CCC(c2ccc(Cl)cc2)=C(CN2CCN(c3ccc(C(=O)NS(=O)(=O)c4ccc(N[C@H](CCN5CCOCC5)CSc5ccccc5)c(S(=O)(=O)C(F)(F)F)c4)cc3)CC2)C1 [Navitoclax] (partner 0.5 µM)
Procedure, shortened: as §1

Cell Line	relative viability (SGI-1776 + Palbociclib; first compound 0.08 µM)	relative viability (SGI-1776 + Palbociclib; first compound 0.8 µM)	relative viability (SGI-1776 + Palbociclib; first compound 2.53 µM)	relative viability (SGI-1776 + Palbociclib; first compound 8 µM)	relative viability (Entinostat + Pemetrexed; first compound 0.02 µM)	relative viability (Entinostat + Pemetrexed; first compound 0.06325 µM)	relative viability (Entinostat + Pemetrexed; first compound 0.2 µM)	relative viability (Entinostat + Pemetrexed; first compound 0.6325 µM)	relative viability (Entinostat + Pemetrexed; first compound 2 µM)	relative viability ([1]; first compound 0.02 µM)	relative viability ([1]; first compound 0.06325 µM)	relative viability ([1]; first compound 0.2 µM)	relative viability ([1]; first compound 0.6325 µM)	relative viability ([1]; first compound 2 µM)	relative viability (SGI-1776 + Navitoclax; first compound 0.08 µM)	relative viability (SGI-1776 + Navitoclax; first compound 0.8 µM)	relative viability (SGI-1776 + Navitoclax; first compound 2.53 µM)	relative viability (SGI-1776 + Navitoclax; first compound 8 µM)
SW 1573	0.441	0.351	0.363	0.245	0.806	0.88	1.08	0.966	0.452	1.02	1.01	0.856	0.912	0.567	1.1	0.862	1.15	0.719
LU99A	0.415	0.441	0.407	0.381	0.188	0.181	0.184	0.175	0.179	0.779	0.842	0.786	0.587	0.277	0.903	0.782	0.898	0.81
NCI-H1299										1.04	1.05	1.01	1.07	0.976	1.04	1.06	0.964	1.04
NCI-H1355	0.419	0.433	0.413	0.345	0.99	0.945	0.874	0.749	0.614	0.924	1.08	0.909	0.841	0.9	0.952	0.967	0.883	0.798
HARA	0.308	0.289	0.261	0.264	0.233	0.22	0.31	0.257	0.247	1.2	1.17	1.21	1.19	0.897	1.15	1.17	1.16	1.16
LXF-289	0.593	0.583	0.619	0.602	0.878	0.878	0.869	0.719	0.665	0.989	1.02	0.973	0.924	0.711	0.966	0.989	0.963	0.983
201T	0.36	0.346	0.342	0.327	0.37	0.33	0.379	0.287	0.279	1.2	1.23	1.14	1.12	1.1	1.19	1.24	1.23	1.17
HCC-827	0.504	0.513	0.509	0.383	0.268	0.265	0.227	0.229	0.187	1.02	1.07	1.08	1.05	1.07	1.05	1.01	1.08	0.99
NCI-H1703										0.874	1.03	0.983	0.646	0.416	1.22	0.914	0.457	0.178
NCI-H1975	0.684	0.563	0.568	0.526	0.283	0.306	0.27	0.219	0.185	1.31	1.17	1.05	1.13	0.422	1.21	1.06	0.883	0.817
NCI-H2023	0.38	0.396	0.354	0.266	0.199	0.192	0.152	0.127	0.0994	1.05	1.03	0.967	0.904	0.444	1.04	1.04	0.998	0.979
ChaGo-K-1	0.911	0.974	0.967	0.911	0.269	0.262	0.271	0.264	0.259	0.96	0.863	0.619	1.01	0.839	0.849	1.23	0.624	0.716
COR-L 105	0.477	0.388	0.396	0.355	1.12	1.23	1.12	0.816	0.56	0.805	0.754	0.69	0.531	0.584	0.799	0.86	1	0.546
NCI-H2170	0.376	0.349	0.408	0.364	0.255	0.283	0.273	0.228	0.229	0.674	0.605	0.673	0.525	0.413	0.561	0.678	0.581	0.56
A549										1.37	1.22	1.13	1.18	0.668	1.24	1.29	1.27	0.77
NCI-H1993	0.466	0.662	0.526	0.504	0.53	0.609	0.558	0.536	0.472	0.819	1.06	0.822	0.874	0.763	0.95	0.945	0.832	0.56
Calu-6										1.03	1.01	0.846	0.809	0.384	0.922	0.909	0.856	0.626
NCI-H1648	0.286	0.327	0.226	0.319	0.736	0.685	0.772	0.38	0.407									
NCI-H322M	0.515	0.508	0.476	0.451	0.66	0.692	0.716	0.599	0.583	1.14	1.19	1.21	0.924	1.12	1.28	1.25	1.15	1.12
NCI-H2405	0.553	0.516	0.484	0.44	1.06	1.22	1.02	0.978	0.667	0.819	0.927	0.904	0.931	0.721	0.823	0.804	0.779	0.452
HCC-44	0.976	0.995	0.953	0.919	0.63	0.604	0.631	0.562	0.564	1.08	1.15	1.08	1	0.571	0.935	0.909	1.08	0.928
HCC-78	0.481	0.428	0.446	0.458	0.922	0.873	0.946	0.871	0.908	0.709	0.728	0.906	0.769	0.645	0.816	0.766	0.812	0.66

Cell Line	relative viability (SGI-1776 + Palbociclib; first compound 0.08 µM)	relative viability (SGI-1776 + Palbociclib; first compound 0.8 µM)	relative viability (SGI-1776 + Palbociclib; first compound 2.53 µM)	relative viability (SGI-1776 + Palbociclib; first compound 8 µM)	relative viability (Entinostat + Pemetrexed; first compound 0.02 µM)	relative viability (Entinostat + Pemetrexed; first compound 0.06325 µM)	relative viability (Entinostat + Pemetrexed; first compound 0.2 µM)	relative viability (Entinostat + Pemetrexed; first compound 0.6325 µM)	relative viability (Entinostat + Pemetrexed; first compound 2 µM)	relative viability ([1]; first compound 0.02 µM)	relative viability ([1]; first compound 0.06325 µM)	relative viability ([1]; first compound 0.2 µM)	relative viability ([1]; first compound 0.6325 µM)	relative viability ([1]; first compound 2 µM)	relative viability (SGI-1776 + Navitoclax; first compound 0.08 µM)	relative viability (SGI-1776 + Navitoclax; first compound 0.8 µM)	relative viability (SGI-1776 + Navitoclax; first compound 2.53 µM)	relative viability (SGI-1776 + Navitoclax; first compound 8 µM)
COR-L23	0.282	0.309	0.32	0.247	0.21	0.184	0.197	0.179	0.167	1.14	1.1	1.05	1.13	0.666	1.13	1.03	1.11	0.731
NCI-H2009	0.251	0.151	0.166	0.174	0.949	0.965	0.963	0.84	0.619	1.19	1.2	1.12	1.05	0.954	1.15	1.18	1.19	1.08
NCI-H3122	0.206	0.2	0.173	0.165	0.186	0.208	0.2	0.171	0.185	0.975	1.05	1.03	1.02	0.798	1.01	1.03	1.03	1.04
NCI-H2228	0.787	1.1	0.715	0.537	0.316	0.399	0.323	0.271	0.172	0.959	1.31	0.783	1.3	0.348	0.843	0.817	0.658	0.51
NCI-H1944	0.346	0.312	0.303	0.279	0.498	0.576	0.465	0.244	0.22	1.03	1.04	0.957	0.841	0.858	1.03	1.09	1.07	1.07
NCI-H2342	0.609	0.539	0.55	0.535	0.811	0.849	0.708	0.638	0.668									
NCI-H358	0.112	0.141	0.129	0.113	0.163	0.168	0.158	0.128	0.135									
NCI-H1755	0.461	0.444	0.438	0.438	0.422	0.437	0.407	0.358	0.374	0.987	1.13	1.05	0.861	0.561	1.02	0.976	0.934	0.856
A-427	0.567	0.541	0.547	0.456	1.03	0.971	0.922	0.904	0.765	1	0.964	0.812	0.864	0.835	1.03	0.957	0.953	1.03
SK-LU-1	0.425	0.306	0.415	0.371	1	0.921	0.988	0.879	0.485	0.982	0.724	0.863	0.765	0.447	1.27	1.35	1.01	0.468
LCLC-103H	0.524	0.456	0.475	0.401	0.472	0.463	0.443	0.454	0.426									
ABC-1	0.661	0.98	0.501	0.431														
NCI-H650	0.39	0.349	0.312	0.33	0.952	0.951	0.833	0.794	0.353									
NCI-H1563					0.77	0.906	0.837	0.826	0.679									
NCI-H522	1.22	1.25	0.953	0.731	0.848	1.21	1.12	1.04	0.774									
IA-LM											0.751	0.705	0.656	0.374	0.951	0.754	0.941	0.905
SW 900	0.599	0.633	0.571	0.395	0.529	0.51	0.448	0.489	0.43									
NCI-H661	0.415	0.399	0.412	0.338	0.886	0.916	0.814	0.663	0.354									
EBC-1										0.397	0.368	0.32	0.377	0.234	0.458	0.292	0.289	0.144
NCI-H727	0.583	0.679	0.693	0.51						0.351	0.501	0.343	0.357	0.337	0.426	0.446	0.346	0.247
NCI-H596					0.499	0.514	0.528	0.439	0.446	1.04	0.983	1.03	0.912	0.444	0.982	1.05	0.995	0.939
